Target: T1, Parathyroid hormone/parathyroid hormone-related peptide receptor (Homo sapiens, UniProt Q03431)
T1 sequence (Q03431 whole entry): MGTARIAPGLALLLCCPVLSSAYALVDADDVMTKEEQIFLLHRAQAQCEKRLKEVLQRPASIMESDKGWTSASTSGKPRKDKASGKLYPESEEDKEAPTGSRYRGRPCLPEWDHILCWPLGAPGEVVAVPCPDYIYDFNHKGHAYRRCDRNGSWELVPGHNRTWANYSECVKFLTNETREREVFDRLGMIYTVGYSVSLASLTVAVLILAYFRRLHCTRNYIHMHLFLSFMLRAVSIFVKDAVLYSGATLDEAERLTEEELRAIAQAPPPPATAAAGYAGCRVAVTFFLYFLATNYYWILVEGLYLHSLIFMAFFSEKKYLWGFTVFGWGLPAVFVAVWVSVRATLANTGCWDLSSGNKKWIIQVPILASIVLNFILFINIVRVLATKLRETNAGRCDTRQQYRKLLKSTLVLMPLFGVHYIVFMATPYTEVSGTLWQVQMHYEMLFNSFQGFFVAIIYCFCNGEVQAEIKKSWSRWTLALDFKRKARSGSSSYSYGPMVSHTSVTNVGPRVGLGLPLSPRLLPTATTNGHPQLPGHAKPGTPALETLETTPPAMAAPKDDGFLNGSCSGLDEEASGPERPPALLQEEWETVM
Assay: Agonist activity at human PTH1 receptor expressed in human GP2.3 cells assessed as induction of cAMP after 12 to 20 mins by luciferase reporter gene assay

## CC[C@H](C)[C@H](NC(=O)[C@H](CC(C)C)NC(=O)[C@H]1CNC[C@@H]1NC(=O)[C@H](Cc1c[nH]cn1)NC(=O)[C@H](CC(C)C)NC(=O)[C@H](Cc1ccccc1)NC(=O)[C@H]1CNC[C@@H]1NC(=O)[C@H](CCCNC(=N)N)NC(=O)[C@H](CCCNC(=N)N)NC(=O)[C@H](CCCNC(=N)N)NC(=O)[C@H]1CCC[C@@H]1NC(=O)[C@H](CC(=O)O)NC(=O)[C@H](CCC(N)=O)NC(=O)[C@@H](NC(=O)[C@H]1CCC[C@@H]1NC(=O)[C@H](CCCCN)NC(=O)CNC(=O)[C@H](CCCCN)NC(=O)[C@H](CC(=O)O)NC(=O)[C@H](Cc1c[nH]cn1)NC(=O)[C@H](CC(C)C)NC(=O)[C@H](CC(C)C)NC(=O)[C@H](CCC(N)=O)NC(=O)[C@H](Cc1c[nH]cn1)NC(=O)[C@H](CCC(=O)O)NC(=O)[C@H](CO)NC(=O)[C@@H](NC(=O)[C@H](C)N)C(C)C)[C@@H](C)CC)C(=O)N[C@@H](C)C(=O)N[C@H]1CCC[C@@H]1C(=O)N[C@H](C(=O)N[C@@H](Cc1c[nH]cn1)C(=O)N[C@H](C(=O)N[C@H]1CCC[C@@H]1C(N)=O)[C@@H](C)O)[C@@H](C)CC
  EC50: 0.65 nM

From BindingDB's records for doi:10.1021/acs.jmedchem.7b00876 (University of Wisconsin-Madison, 2017)
